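48-hour exposure; five concentrations; linearly interpolated endpoints. Here, GI50 denotes the concentration required for 50% inhibition of growth.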 The source made the active and inactive calls. Rule as the data show it: active = GI50 up to about 1.1 µM and inactive = higher.
Tests used:
Experiment in all cases: NCI anticancer screen, dose series, 48 h
A549 = test system: A549
CAKI-1 = test system: CAKI-1
CCRF-CEM = test system: CCRF-CEM
DU-145 = test system: DU-145
HCT-116 = test system: HCT-116
HCT-15 = test system: HCT-15
HT-29 = test system: HT-29
KM12 = test system: KM12
LOX IMVI = test system: LOX IMVI
MDA-N = test system: MDA-N
NCI-H23 = test system: NCI-H23
NCI/ADR-RES = test system: NCI/ADR-RES
PC-3 = test system: PC-3
SF-268 = test system: SF-268
SF-295 = test system: SF-295
SK-MEL-2 = test system: SK-MEL-2
SK-OV-3 = test system: SK-OV-3
SN12C = test system: SN12C
TK-10 = test system: TK-10
Hs-578T = test system: Hs-578T

Row | Compound | GI50 (A549) | GI50 (CAKI-1) | GI50 (CCRF-CEM) | GI50 (DU-145) | GI50 (HCT-116) | GI50 (HCT-15) | GI50 (HT-29) | GI50 (KM12) | GI50 (LOX IMVI) | GI50 (MDA-N) | GI50 (NCI-H23) | GI50 (NCI/ADR-RES) | GI50 (PC-3) | GI50 (SF-268) | GI50 (SF-295) | GI50 (SK-MEL-2) | GI50 (SK-OV-3) | GI50 (SN12C) | GI50 (TK-10) | GI50 (Hs-578T)
1 | C(=N\NC1=NCCCN1)/c1ccc(-c2cn3cc(/C=N/NC4=NCCCN4)ccc3n2)cc1 | 24.6 µM (inactive) | 37 µM (inactive) | > 41.9 µM (inactive) | 26.6 µM (inactive) | > 88.3 µM (inactive) | > 100 µM | 29.3 µM (inactive) | > 58.1 µM (inactive) | > 100 µM (inactive) | > 100 µM (inactive) | > 100 µM (inactive) | > 100 µM (inactive) | > 40.1 µM (inactive) | > 100 µM (inactive) | > 100 µM (inactive) | > 100 µM (inactive) | > 100 µM (inactive) | > 100 µM (inactive) | > 100 µM (inactive) | 
2 | C=CCOC(=O)CCCCCCCCCCCCCCCOC(=O)c1c(CCC[C@@H](C)O[Si](C)(C)C(C)(C)C)nc([O-])[n+]2c1CC[C@H]2CC1(CC/C=C\[C@H](CC)O[Si](C(C)C)(C(C)C)C(C)C)OCCO1 | 55 µM (inactive) | > 100 µM (inactive) | 14.4 µM (inactive) | > 100 µM (inactive) | 47.1 µM (inactive) | 46 µM |  | 85.9 µM (inactive) |  | 60.8 µM (inactive) | > 100 µM (inactive) | > 100 µM (inactive) | > 100 µM (inactive) | > 100 µM (inactive) | 48.8 µM (inactive) | 37.2 µM (inactive) | > 100 µM (inactive) | 34 µM (inactive) | > 100 µM (inactive) | 
3 | Cn1cnnc1SC(F)(F)c1nc2ccccc2o1 | > 100 µM (inactive) | > 100 µM (inactive) | > 100 µM (inactive) | > 100 µM (inactive) | > 100 µM (inactive) | > 100 µM | > 100 µM (inactive) | > 100 µM (inactive) |  | > 100 µM (inactive) | > 100 µM (inactive) | > 100 µM (inactive) | > 100 µM (inactive) | > 100 µM (inactive) | > 100 µM (inactive) | > 100 µM (inactive) | > 100 µM (inactive) | > 100 µM (inactive) | > 100 µM (inactive) | 
4 | O=C(Cc1ccccc1)NNc1nc(NNC(=O)c2ccncc2)nc(Nc2ccccc2)n1 |  | > 10 µM (inactive) | > 10 µM (inactive) | > 10 µM (inactive) |  | > 10 µM | > 10 µM (inactive) | > 10 µM (inactive) | > 10 µM (inactive) | > 10 µM (inactive) |  | > 10 µM (inactive) |  | > 10 µM (inactive) |  |  | > 10 µM (inactive) | > 10 µM (inactive) | > 10 µM (inactive) | > 10 µM (inactive)
5 | COc1ccc(C2OC(=O)c3c2ccc2ccccc32)c(C)c1 (stereo not given) | 3.07 µM (inactive) |  |  |  | 3.81 µM (inactive) | 1.93 µM | 3.37 µM (inactive) | 2.38 µM (inactive) |  | 0.499 µM (active) | 5.41 µM (inactive) |  | 3.27 µM (inactive) |  |  | 1.34 µM (inactive) |  | 1.21 µM (inactive) | 2.94 µM (inactive) | 3.44 µM (inactive)
6 | Cc1ccc2n(c1)cc(-c1ccc(/C=N/NC(=N)N/N=C/c3ccc(-c4cn5cc(C)ccc5[n+]4C)cc3)cc1)[n+]2C | > 100 µM (inactive) |  | > 100 µM (inactive) |  | > 100 µM (inactive) | 95.9 µM | > 100 µM (inactive) | > 100 µM (inactive) |  | 50.2 µM (inactive) |  | > 100 µM (inactive) | > 100 µM (inactive) | 21.4 µM (inactive) | > 100 µM (inactive) |  | > 100 µM (inactive) | > 100 µM (inactive) | > 100 µM (inactive) | 74.3 µM (inactive)

Source: ChEMBL document CHEMBL1201862, “PubChem BioAssay data set” (2004)
